According to PMC7273600 (The Journal of Veterinary Medical Science, 2020):
Marks after values point to notes of the source that are not given here.

How the values were obtained:
[1] = test system: CYP1A; conditions: cited from earlier work
[2] = test system: CYP; conditions: hen treated with tribufos; cited from earlier work
[3] = test system: CYP2C; conditions: read-out: Km of tolbutamide reported in rats; cited from earlier work
[4] = test system: CYP2D; assay: Inhibition of bufuralol 1'-hydroxylation; format: in vitro ADME, rat; conditions: at 1,000 µM
[5] = test system: CYP2C; assay: Hepatic microsomal TBH activity after oral administration for five days; conditions: five consecutive days, P≤0.05
[6] = test system: CYP3A; assay: Hepatic microsomal MDZH activity after oral administration for five days; conditions: five consecutive days, P≤0.05
[7] = test system: CYP1A; assay: Hepatic microsomal EROD activity after oral administration for five days; conditions: five consecutive days, P≤0.05
[8] = test system: CYP2D; assay: Hepatic microsomal BLH activity after oral administration for five days; conditions: five consecutive days, P≤0.05
[9] = test system: CYP3A; assay: Inhibition of midazolam 4-hydroxylation; format: in vitro ADME, rat; conditions: at 1,000 µM
[10] = test system: cytochrome P450; conditions: five days; for Effect of oral treatment on total CYP content: decrease seen at high dose, P≤0.05; for Total cytochrome content, High dose / Total cytochrome content, Low dose: male SD rats, oral, mean ± SD (n=5); for Total cytochrome content, High dose: one-tenth of LD50; for Total cytochrome content, Low dose: one-thirtieth of LD50
[11] = test system: CYP2C; assay: Inhibition of tolbutamide hydroxylation; format: in vitro ADME, rat; conditions: at 1,000 µM
[12] = test system: CYP2C9; conditions: read-out: IC50 for CYP2C9; human microsomes; cited from earlier work
[13] = test system: CYP3A; conditions: read-out: Km of midazolam reported in rats; cited from earlier work
[14] = test system: CYP1A; conditions: read-out: Km of ethoxyresorufin reported in rats; cited from earlier work
[15] = test system: CYP2D6; conditions: read-out: IC50 for CYP2D6; human microsomes; cited from earlier work
[16] = test system: CYP2B6; conditions: read-out: IC50 for CYP2B6; human microsomes; cited from earlier work
[17] = test system: CYP1A; assay: Inhibition of ethoxyresorufin O-deethylation; format: in vitro ADME; conditions: rat hepatic microsomes; for Concentration that evidently inhibited EROD: Fig. 2
[18] = ref Food Safety Commission of Japan; cited from earlier work
[19] = test system: CYP1A1/2; conditions: read-out: IC50 for CYP1A1/2; human microsomes; cited from earlier work
[20] = test system: CYP2C8; conditions: read-out: IC50 for CYP2C8; human microsomes; cited from earlier work
[21] = test system: CYP2D; conditions: read-out: Km of bufuralol reported in rats; cited from earlier work

SMILES: CC1(C)C(C(=O)OC(C#N)c2cccc(Oc3ccccc3)c2)C1(C)C (stereo not shown) [fenpropathrin]
- Effect on hepatic CYP1A [1]: potent inhibitor of CYP1A

SMILES: CC1(C)C(C=C(Cl)Cl)C1C(=O)OCc1cccc(Oc2ccccc2)c1 (stereo not shown) [permethrin]
- Effect on hepatic CYP1A [1]: potent inhibitor of CYP1A

SMILES: CCCCSP(=O)(SCCCC)SCCCC [tribufos, S,S,S-tri-n-butyl phosphorotrithioate]
- Increase of CYP content in hepatic microsomes [2]: 2–3 fold

SMILES: CCCCNC(=O)NS(=O)(=O)c1ccc(C)cc1 [tolbutamide]
- Km [3]: 1910 µM

SMILES: COP(=O)(OC)OC=C(Cl)Cl [Dichlorvos, dichlorvos]
- Inhibitory effect on BLH [4]: not evident
- Microsomal activity of TBH compared with control group [5]: no significant effects
- Microsomal activity of MDZH compared with control group [6]: no significant effects
- Microsomal activity of EROD compared with control group [7]: no significant effects
- Microsomal activity of BLH compared with control group [8]: no significant effects
- Inhibitory effect on MDZH [9]: not evident
- Effect of oral treatment on total CYP content [10]: not significantly affected
- Total cytochrome content, High dose [10]: 1.75 ± 0.18 nM/mg protein
- Total cytochrome content, Low dose [10]: 1.69 ± 0.40 nM/mg protein
- Inhibitory effect on TBH [11]: not evident

SMILES: CCOC(=O)CC(SP(=S)(OC)OC)C(=O)OCC (stereo not shown) [malathion]
- IC50 [12]: 2500 nM

SMILES: Cc1ncc2n1-c1ccc(Cl)cc1C(c1ccccc1F)=NC2 [midazolam]
- Km [13]: 22 µM

SMILES: CCOc1ccc2nc3ccc(=O)cc-3oc2c1 [ethoxyresorufin]
- Km [14]: 0.227 µM

SMILES: CCOC(=O)C(SP(=S)(OC)OC)c1ccccc1 (stereo not shown) [phenthoate]
- IC50 [15]: ~3000 nM

SMILES: COP(=S)(OC)Oc1ccc([N+](=O)[O-])c(C)c1 [Fenitrothion, fenitrothion]
- IC50 [16]: 2500 nM
- Microsomal activity of TBH compared with control group [5]: significantly higher
- Manner of EROD inhibition [17]: noncompetitive
- Concentration that evidently inhibited EROD [17]: less than 1 µM
- Acceptable daily intake (ADI) [18]: 0.005 mg/kg/day
- IC50 [12]: 4800 nM
- IC50 [19]: ~3000 nM
- Microsomal activity of MDZH compared with control group [6]: significantly lower
- Microsomal activity of EROD compared with control group [7]: significantly lower
- IC50 [20]: 4300 nM
- Effect of oral treatment on total CYP content [10]: not significantly affected
- Total cytochrome content, High dose [10]: 1.18 ± 0.23 nM/mg protein
- Total cytochrome content, Low dose [10]: 1.38 ± 0.51 nM/mg protein

SMILES: CCCSP(=O)(OCC)Oc1ccc(Br)cc1Cl (stereo not shown) [profenofos]
- IC50 [19]: ~3000 nM

SMILES: CCc1cccc2cc(C(O)CNC(C)(C)C)oc12 (stereo not shown) [bufuralol]
- Km [21]: 6.4 µM

SMILES: CCOP(=S)(OCC)Oc1nc(Cl)c(Cl)cc1Cl [Chlorpyrifos, chlorpyrifos]
- IC50 [16]: 2500 nM
- Microsomal activity of TBH compared with control group [5]: no significant effects
- Manner of EROD inhibition [17]: noncompetitive
- Concentration that evidently inhibited EROD [17]: less than 1 µM
- Acceptable daily intake (ADI) [18]: 0.001 mg/kg/day
- IC50 [19]: ~3000 nM
- Microsomal activity of MDZH compared with control group [6]: no significant effects
- Microsomal activity of EROD compared with control group [7]: no significant effects
- Microsomal activity of BLH compared with control group [8]: no significant effects
- Effect of oral treatment on total CYP content [10]: significantly decreased
- Total cytochrome content, High dose [10]: 1.30 ± 0.48^a) nM/mg protein
- Total cytochrome content, Low dose [10]: 1.69 ± 0.18 nM/mg protein
- IC50 [15]: ~3000 nM
